Laboratory results taken from article PMC6054100, “Exploring the chemical space of the lysine-binding pocket of the first kringle domain of hepatocyte growth factor/scatter factor (HGF/SF) yields a new class of inhibitors of HGF/SF-MET binding” (Chemical Science, 2015).

Legend:
[1] = molecular target: T1, NK1 (Homo sapiens, UniProt P14210); experiment: Binding of lysine analogues to NK1 (unpublished data); conditions: A. G. S.
[2] = molecular target: T1, NK1; experiment: 1H-15N TROSY-HSQC NMR chemical shift titration of 15N-labelled NK1; assay type: binding; parameters: made in house; host or cells: Pichia pastoris; conditions: steady-state binding constants; piperazine-like compounds; 0.18 mM NK1, pH 7.2, 310 K; read-out: KD in NMR
Method: Ligand screening was performed by monitoring the chemical shift variations in ^1H-^15N TROSY-HSQC NMR spectra of the uniformly [^15N]-labelled NK1 protein (Fragai et al. 2015, in prep.) upon the addition of increasing concentrations of the investigated compounds.[43]–[45] The experiments were performed using 0.18 mM protein samples in 25 mM Tris, 100 mM NaCl and 0.01% sodium azide, at pH 7.2 with 10% D2O. The spectra were recorded at 310 K on a Bruker AVANCE 900 MHz spectrometer equipped with a TXI cryo-probe. Sample solutions were prepared from 1 M or 100 mM DMSO stock solutions of the ligands. The dissociation constant values (KD) were calculated by plotting the weighted average ^1H and ^15N chemical shifts of the residues experiencing significant variations as a function of ligand concentration added during the titration and considering the one site binding model.[46]

[3] = system: MET downstream signalling (Erk 1/2, Akt) in Vero cells; experiment: MET, Erk1/2 and Akt phosphorylation assay in NK1-stimulated Vero cells (Western blot); assay type: cell-based; conditions: Vero cells stimulated with NK1
Method: We evaluated the effect of piperazine-like compounds and MB605 on Vero cells by assessing MET, Erk 1/2 and Akt phosphorylation in response to stimulation using […] NK1. MB605 was dissolved in DMSO, which limited the range of concentrations tested to ≤1 mM in order to avoid solvent effects on cell function/viability. The water-soluble piperazine-like compounds, in contrast, could be tested at concentrations up to 100 mM.
Fig. 6 Biological activity of the piperazine-like compounds and MB605. (a–e) Vero cells expressing the receptor endogenously on their cell surface were stimulated with HGF/SF or NK1 and phosphorylation of MET and downstream targets Akt and Erk1/2 was analysed. Piperazine-like compounds HEPES (a), (H)EPPS (b), MES (c), MOPS (d) and CAPS (e) were tested at 100 mM (lanes 4), 10 mM (lanes 5), 1 mM (lanes 6) and 100 μM (lanes 7) concentration in the presence of 1 nM NK1. To control for activating or inhibiting effects of the compounds independently of MET, piperazine-like compounds were tested on cells at 100 mM without stimulation by NK1 (lanes 3). Biological activity of MB605 (f) was investigated at 1 mM (lane 5), 100 μM (lane 6) and 10 μM (lane 7) in the presence of a constant concentration of DMSO (0.1%). A solvent control (0.1% DMSO, lane 3) was included in order to account for the effect of DMSO on the cells. A positive control (1 nM NK1 in the presence of 0.1% DMSO) is shown in lane 4. In all experiments, un-stimulated cells served as negative control (lanes 1) while cells stimulated with 1 nM NK1 served as positive control (lanes 2).
The ability of MB605 and the piperazine-like compounds to inhibit MET, Erk and Akt phosphorylation in the presence of NK1 was tested using mammalian Vero cells as described by Ferraris et al.[47] and further details are given in the ESI ^† section of the manuscript. […]
For MET, Erk1/2 and Akt phosphorylation assays, Vero cells were seeded at 2.1 × 10^5 cells we ll -1 (2 ml we ll -1) in 6-well plates and grown to 90% conf luence in 10% FCS/DMEM media and then switched to serum-free medium (to avoid any growth f actors present in the serum).
24 hours post starvation the cells were stimulated for 5 min at 37°C with each individual piperazine -like compounds as well as with NK1 (1 nM) pre-incubated with different concentrations of the piperazine- like compounds (100 mM, 10 mM, 1 mM and 100 μM) or MB605 (1 mM, 100 μM and 10 μM). Stimulations with either 0. 1% DMS O or 1 nM of NK1 […]
solution were used as a negative and a positive control, respectively. The cells were then washed in PBS buffer, lysed on ice f or 30 min and frozen at -80 °C until further analysis. For

[4] = molecular target: T1, NK1; experiment: SPR steady-state binding to immobilized NK1 (Biacore T100); parameters: made in house; host or cells: Pichia pastoris; conditions: steady-state binding constants; piperazine-like compounds; immobilized NK1, PBS pH 7.4; read-out: KD in SPR
Method: Binding constants of piperazine-like compounds and fragments were determined using a Biacore T100 instrument. NK1 was immobilized on a CM5 chip by amine coupling to a density of 6000 RU. Compounds were stored as 100 mM stock solutions in water and serial dilutions were prepared in the running buffer (PBS pH 7.4, 0.05% Tween 20). The compound solutions were injected onto the surface of the chip at a flow rate of 30 μL min^–1, contact time was 1 min and dissociation time 1 min. Sensorgrams were analysed using the Biacore T100 evaluation software and the binding constants determined.

[5] = molecular target: T2, lysine-binding pocket of the kringle domain of NK1 (Homo sapiens, UniProt P14210); experiment: Soaking into NK1 apo crystals, X-ray crystallography; conditions: soaked into NK1 apo crystals
T2 construct: made in house; host or cells: Pichia pastoris
T2 sequence (P14210 32-210 isoform P14210-6 limits assumed): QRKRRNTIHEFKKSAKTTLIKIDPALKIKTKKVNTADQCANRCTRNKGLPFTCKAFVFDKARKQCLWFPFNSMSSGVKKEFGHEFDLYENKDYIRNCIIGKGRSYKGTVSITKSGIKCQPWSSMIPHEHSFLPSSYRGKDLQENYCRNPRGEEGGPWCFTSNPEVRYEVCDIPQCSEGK
Method: Next, three classes of piperazine-like sulphonated compounds containing piperazine ((H)EPPS and PIPES), morpholine (MES and MOPS), or cyclohexane (CHES and CAPS) rings were studied for their binding to NK1 (Table 1), alongside another five sulphonated compounds selected from a chemical fragment library (Table 2).
NK1 buffered in 150 mM NaCl, 50 mM Tris, pH 7.5 (apo-NK1 and all soaking experiments) was concentrated to ∼20 mg mL^–1 using a Vivaspin device with a 10 kDa cut-off membrane (Sartorius Biolab). Crystallisation was carried out in Linbro plates by the vapour diffusion hanging drop technique using a protein : precipitant ratio of 1 : 1 at 20 °C. Previously NK1 has been crystallised in 18% PEG 4000, 200 mM sodium acetate and 150 mM Tris pH 8.5 as precipitant.[19] Here final crystallisation conditions (19% PEG 4000, 200 mM sodium acetate and 150 mM Tris pH 7.5) were optimised around those to achieve high-resolution apo structure. Details of compound soaking, X-ray data collection and structure determination are given in the ESI ^† section of the manuscript. […]
For this, 1 M stock solutions were prepared in DMSO (fragments) or water (piperazine- like compounds) and the pH adjusted to a value within their buffering range with either HCl or NaOH. The seven piperazine- like compounds and their respective pH are: HEPES (pH 7.6), (H)EPPS (pH 7.4), PIPES (pH 7.0), MES (pH 5.8), MOPS (pH 7.2), CHES (pH 8.6) and CAPS (pH 9.7). Secondary stocks of the compounds at 50 mM were prepared in the […]
respective mother liquor and soaked for up to 48 hours.
MB605 was solubilised in 50% DMSO at 20 mM concentration (1% f inal DMSO concentration in the drop) in order to minimize adverse effects of DMSO on the protein crystal. 25% ethylene glycol was used as the cryoprotective agent.
X-ray data collection and processing
X-ray datasets were collected either at the European Synchrotron Radiation Facility (ESRF, Grenoble, France), the Diamond Light Source (DLS, Oxford, UK) or in-house using the X8 PROTEUM (Bruker AXS) at the Department of Biochemistry, University of Cambridge.
Datasets of at least 180° were collected. Raw data collected at synchrotrons were integrated, merged, scaled and reduced using DENZO and […].2 Raw data […]
collected in- house were integrated, merged, scaled and reduced using the PROTEUM 2 software package .3 The CCP4 suite of crystallographic programs (Collaborative

[6] = system: NK1-MET complexes; parameters: method as in Lauris Kemp, personal communication; conditions: buffers containing 50 mM HEPES; ref Lauris Kemp, personal communication; cited from earlier work

T1 sequence (P14210 32-210 isoform P14210-6 limits assumed): as above

SMILES | binding to NK1 [1] | Kd [2] [mM] | Inhibition of phosphorylation of Erk 1/2 and Akt (S473) ([3]; compound 10 mM (lane 5)) | Inhibition of phosphorylation of Erk 1/2 and Akt (S473) ([3]; compound 100 mM (lanes 4)) | Kd [4] [mM] | binding in the lysine-binding pocket (crystal structure) [5] | formation of NK1-MET complexes [6]
NC[C@H]1CC[C@H](C(=O)O)CC1 [AMCHA, trans-4-(aminomethyl)cyclohexane-1-carboxylic acid] | neither EACA or AMCHA binds NK1 | – | – | – | – | – | –
O=S(=O)(O)CCCNC1CCCCC1 [CAPS] | – | 1.4 ± 0.5 | active | Inhibition of phosphorylation | 1.2 ± 0.2 | bind the lysine-binding pocket of NK1 | –
NCCCCCC(=O)O [EACA, ε-aminocaproic acid] | neither EACA or AMCHA binds NK1 | – | – | – | – | – | –
O=S(=O)(O)CCN1CCN(CCO)CC1 [HEPES, 4-(2-hydroxyethyl)-1-piperazineethanesulfonic acid] | – | 3.3 ± 0.4 | – | Inhibition of phosphorylation | 2.4 ± 0.4 | bound into the lysine-binding pocket | inhibited
O=S(=O)(O)CCN1CCOCC1 [MES] | – | 13.4 ± 5.7 | – | Inhibition of phosphorylation | 24.3 ± 3.1 | bind the lysine-binding pocket of NK1 | –
O=S(=O)(O)CCCN1CCOCC1 [MOPS] | – | 4.7 ± 1.7 | – | Inhibition of phosphorylation | 7 ± 1 | bind the lysine-binding pocket of NK1 | –
